The record followed here is patent publication US10144715B2, “Piperazine derivatives as liver X receptor modulators” (priority 2014, dated 2018).

For experiment [1], the target named is T1, LXR α LBD protein (Homo sapiens (Human), UniProt Q13133). Kind of experiment: Human LXRα coactivator recruitment FRET assay, agonist mode. The format is biochemical. To be noted: agonist mode. Put shortly:
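LXRα- or LXRβ-LBD at 10 nM (2×) mixed with compound in DMSO, then fluorescein-SRC2-3 peptide 200 nM and Tb-anti-GST antibody 20 nM (4×) added; 2 h at rt. Time-resolved FRET read, 100 µs delay, 200 µs window; EC50 from four-parameter fit of percent control.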

The target of experiment [2] is T2, Gal4 DNA binding domain fused to the LBD of LXRα in HEK293 cells (Homo sapiens (Human), UniProt Q13133). Kind of experiment: LXR luciferase transcriptional reporter gene assay, agonist mode, LXRα. Type of experiment: cell-based. On the technique in general: In a reporter assay the amount or activity of a reporter protein is the signal.
T2 sequence (Q13133 209-447): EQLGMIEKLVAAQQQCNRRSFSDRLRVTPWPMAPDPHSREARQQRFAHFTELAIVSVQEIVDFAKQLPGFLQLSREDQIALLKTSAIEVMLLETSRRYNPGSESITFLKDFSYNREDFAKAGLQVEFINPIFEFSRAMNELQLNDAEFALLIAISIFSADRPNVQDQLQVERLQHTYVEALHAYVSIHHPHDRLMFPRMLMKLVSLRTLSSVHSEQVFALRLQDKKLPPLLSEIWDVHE
The next experiment has as its target LXR β LBD protein (Homo sapiens (Human), UniProt P55055). The experiment is described as follows: biochemical. Type of experiment: binding. To be noted: read-out: LXRβ Binding Ki.
For experiment [3], the target named is T3, Gal4 DNA binding domain fused to the LBD of LXRβ in HEK293 cells (Homo sapiens (Human), UniProt P55055). Kind of experiment: cell-based.
T3 sequence (P55055 222-460 limits assumed): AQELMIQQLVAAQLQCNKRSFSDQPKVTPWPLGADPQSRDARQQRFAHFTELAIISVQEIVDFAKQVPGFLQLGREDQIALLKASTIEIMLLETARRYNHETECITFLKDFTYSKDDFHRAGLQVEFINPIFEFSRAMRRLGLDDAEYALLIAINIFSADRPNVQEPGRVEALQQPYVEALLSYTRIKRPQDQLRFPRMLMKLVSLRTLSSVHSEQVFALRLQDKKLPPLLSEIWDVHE
Experiment [4] addresses T1, LXR α LBD protein. Kind of experiment: LXR α radioligand binding assay (SPA, competition with [3H]TO901317). As to conditions: read-out: LXRα Binding Ki.
Experiment [5] deals with T2, Gal4 DNA binding domain fused to the LBD of LXRα in HEK293 cells. Kind of experiment: LXR luciferase transcriptional reporter gene assay, antagonist mode (200 nM T0901317), LXRα. The format is cell-based.
In experiment [6] the target is T3, Gal4 DNA binding domain fused to the LBD of LXRβ in HEK293 cells. Kind of experiment: cell-based. The format is cell-based.
Where [7] appears, read: agonist mode, read-out: Cell LXRα EC50.
Where [8] appears, read: antagonist mode, 200 nM T0901317, HEK293 reporter gene assay, read-out: Cell LXRα IC50.
The mark [9] stands for this setting: antagonist mode, 200 nM T0901317, HEK293 reporter gene assay.

Read-outs that look alike come from different tables or passages of the source.

Sequence of LXR β LBD protein (P55055 222-460 limits assumed): as above
T1 sequence (Q13133 209-447): as the sequence (Q13133 209-447) above

Consider `CC(C)[C@@H]1CN(c2ccc(F)c(S(C)(=O)=O)c2)CCN1c1ccc(C(F)(F)F)cn1` [7-36, (R)-4-(4-fluoro-3-(methylsulfonyl)phenyl)-2-isopropyl-1-(5-(trifluoromethyl)pyridin-2-yl)piperazine], for which the EC50 (commonly the concentration at which the effect is half-maximal) is 415 nM at LXR α LBD protein [1], 333 nM in experiment [2] (read-out: Cell LXRα EC50) and 121 nM in experiment [3]. Also, the “FRET LXRα efficacy” value at LXR α LBD protein [1] was determined as 102%. The “Cell LXRα efficacy” value in experiment [2] is recorded as 333 (106) %. Besides, the values for the Ki on LXR β LBD protein and on LXR α LBD protein [4] were 4 nM and 30 nM, respectively. Further, the “Cell LXRβ efficacy” value in experiment [3] was 121 (93) %. In addition, the IC50 in experiment [5] (read-out: Cell LXRα IC50) and in experiment [6] was above 10000 nM each time.
As to `CCOC(=O)CN(C)C(=O)c1cnc(N2CCN(c3ccc(F)c(S(C)(=O)=O)c3)C[C@H]2C(C)C)nc1C(F)(F)F` [17-16, ethyl (R)-N-(2-(4-(4-fluoro-3-(methylsulfonyl)phenyl)-2-isopropylpiperazin-1-yl)-4-(trifluoromethyl)pyrimidine-5-carbonyl)-N-methylglycinate], the EC50 in experiment [2] (setting [7]) and in experiment [3] was above 20000 nM throughout. For the same compound, the Ki (commonly a measure of affinity in units of concentration, obtained from inhibition or displacement) at LXR β LBD protein worked out at 194 nM; at LXR α LBD protein [4], 2170 nM. The “Cell LXRα efficacy” value in experiment [5] is on record as 1530 (99) %. The IC50 (commonly the concentration at which inhibition is half-maximal) stood at 1530 nM in experiment [5] (setting [8]) and 361 nM in experiment [6]. In addition, the “Cell LXRβ efficacy” value in experiment [6] is reported as 361 (86) %.
As for `NS(=O)(=O)c1cccc(N2CCN(C[C@H]3CC[C@@H](C(F)F)CC3)[C@@H](c3ccccc3)C2)c1` (single isomer, unassigned) [48-23], the “Cell LXRα efficacy” value in experiment [2] is 319 (43) %; in experiment [5] it was 4955 (123) %. Besides, the EC50 in experiment [2] (read-out: Cell LXRα EC50) amounted to 319 nM; in experiment [3] (agonist mode, read-out: Cell LXRβ EC50) it was 97 nM. Further, the Ki at LXR β LBD protein stood at 11 nM; at LXR α LBD protein [4], 94 nM. In addition, the “Cell LXRβ efficacy” value in experiment [3] (agonist mode) is listed as 14%; in experiment [6] (setting [9]) it was 91%. For the same compound, the IC50 in experiment [5] (read-out: Cell LXRα IC50) was determined as 4960 nM; in experiment [6] (antagonist mode, 200 nM T0901317, HEK293 reporter gene assay, read-out: Cell LXRβ IC50) it was 408 nM.
On to `CC(C)[C@@H]1CN(c2ccc(F)c(S(C)(=O)=O)c2)CCN1c1ncc(C(=O)N(C)CCC(C)(C)O)c(C(F)(F)F)n1` [17-17, (R)-2-(4-(4-fluoro-3-(methylsulfonyl)phenyl)-2-isopropylpiperazin-1-yl)-N-(3-hydroxy-3-methylbutyl)-N-methyl-4-(trifluoromethyl)pyrimidine-5-carboxamide], for which the EC50 in experiment [2] (setting [7]) and in experiment [3] was above 20000 nM throughout. Besides, the results for the Ki at LXR β LBD protein and on LXR α LBD protein [4] were 618 nM and above 3330 nM, respectively. Further, the IC50 came out at 2610 nM in experiment [5] (setting [8]) and 684 nM in experiment [6]. In addition, the “Cell LXRβ efficacy” value in experiment [6] (setting [9]) was 684 (93) %.
As for `CC(C)[C@@H]1CN(c2cc(F)c(CO)c(S(C)(=O)=O)c2)CCN1c1ncc(CO)c(C(F)(F)F)n1` [Cpd No 11-6, (R)-(2-fluoro-4-(4-(5-(hydroxymethyl)-4-(trifluoromethyl)pyrimidin-2-yl)-3-isopropylpiperazin-1-yl)-6-(methylsulfonyl)phenyl)methanol], the “Cell LXRα efficacy” value in experiment [2] is 216 (58) %. The figures for the EC50 in experiment [2] (setting [7]) and in experiment [3] were 216 nM and 16 nM, respectively. The Ki on LXR β LBD protein was 2 nM; at LXR α LBD protein [4] it was 71 nM. The “Cell LXRβ efficacy” value is on record as 16 (46) % in experiment [3] (agonist mode) and 1355 (65) % in experiment [6] (setting [9]). Moreover, the IC50 came to 3860 nM in experiment [5] (setting [8]) and 1360 nM in experiment [6].
In the case of `CC(C)[C@@H]1CN(c2cccc(S(C)(=O)=O)c2)CCN1c1nccc(OC(F)F)n1` [44-2, (R)-4-(difluoromethoxy)-2-(2-isopropyl-4-(3-(methylsulfonyl)phenyl)piperazin-1-yl)pyrimidine], the “Cell LXRα efficacy” value was 2594 (24) % in experiment [2] and 105% in experiment [5] (setting [9]). The EC50 in experiment [2] worked out at 2590 nM; in experiment [3], 205 nM. For the same compound, the Ki at LXR β LBD protein stood at 35 nM; at LXR α LBD protein [4], 520 nM. The “Cell LXRβ efficacy” value in experiment [3] is listed as 205 (10) %; in experiment [6], 177 (103) %. The IC50 was 1470 nM in experiment [5] and 177 nM in experiment [6].
On to `CC(C)[C@@H]1CN(c2ccc(F)c(S(C)(=O)=O)c2)CCN1c1ncc(CN(C)C(C)(C)C)c(C(F)(F)F)n1` [15-6, (R)-N-((2-(4-(4-fluoro-3-(methylsulfonyl)phenyl)-2-isopropylpiperazin-1-yl)-4-(trifluoromethyl)pyrimidin-5-yl)methyl)-N,2-dimethylpropan-2-amine], for which the half-maximal effective concentration (EC50) in experiment [2] (setting [7]) and in experiment [3] was above 20000 nM in each case. For the same compound, the Ki is 360 nM at LXR β LBD protein and above 3330 nM on LXR α LBD protein [4]. Also, the “Cell LXRα efficacy” value in experiment [5] is reported as 6215 (98) %. The results for the IC50 in experiment [5] (setting [8]) and in experiment [6] were 6220 nM and 1320 nM, respectively. Besides, the “Cell LXRβ efficacy” value in experiment [6] (setting [9]) is on record as 1325 (91) %.
As for `CNS(=O)(=O)c1cc(N2CCN(c3ncc(C(C)(C)O)c(C(F)(F)F)n3)[C@H](C(C)C)C2)ccc1F` [10-3, (R)-2-fluoro-5-(4-(5-(2-hydroxypropan-2-yl)-4-(trifluoromethyl)pyrimidin-2-yl)-3-isopropylpiperazin-1-yl)-N-methylbenzenesulfonamide], the “Cell LXRα efficacy” value in experiment [2] is 646 (35) %; in experiment [5], 2003 (83) %. Further, the EC50 in experiment [2] (setting [7]) stood at 646 nM; in experiment [3], 69 nM. For the same compound, the values for the Ki at LXR β LBD protein and at LXR α LBD protein [4] were 5 nM and 135 nM, respectively. Also, the “Cell LXRβ efficacy” value in experiment [3] (agonist mode) is given as 69 (24) %. Further, the IC50 was 2000 nM in experiment [5] (setting [8]) and 242 nM in experiment [6].
Turning to `CCCCN(C)C(=O)c1cnc(N2CCN(c3ccc(F)c(S(C)(=O)=O)c3)C[C@H]2C(C)C)nc1C(F)(F)F` [17-10, (R)-N-butyl-2-(4-(4-fluoro-3-(methylsulfonyl)phenyl)-2-isopropylpiperazin-1-yl)-N-methyl-4-(trifluoromethyl)pyrimidine-5-carboxamide], the EC50 in experiment [2] (setting [7]) and in experiment [3] was above 20000 nM each time. Also, the values for the Ki on LXR β LBD protein and on LXR α LBD protein [4] were 65 nM and 558 nM, respectively. Also, the “Cell LXRα efficacy” value in experiment [5] is 501 (94) %. Moreover, the results for the IC50 in experiment [5] (setting [8]) and in experiment [6] were 501 nM and 100 nM, respectively. Moreover, in experiment [6] (setting [9]), the “Cell LXRβ efficacy” value was 100 (89) %.
As for `CC(C)[C@@H]1CN(c2ccc(F)c(S(C)(=O)=O)c2)CCN1c1ncc(C(=O)N(C)CCCO)c(C(F)(F)F)n1` [17-11, (R)-2-(4-(4-fluoro-3-(methylsulfonyl)phenyl)-2-isopropylpiperazin-1-yl)-N-(3-hydroxypropyl)-N-methyl-4-(trifluoromethyl)pyrimidine-5-carboxamide], the EC50 in experiment [2] (setting [7]) and in experiment [3] was above 20000 nM each time. In addition, the Ki at LXR β LBD protein is 548 nM; at LXR α LBD protein [4], 4880 nM. Also, the IC50 in experiment [5] (setting [8]) worked out at 3460 nM; in experiment [6], 875 nM. For the same compound, in experiment [6] (setting [9]), the “Cell LXRβ efficacy” value is 875 (90) %.
With `Cc1ccc(N2CCN(c3cccc(S(C)(=O)=O)c3)C[C@H]2C(C)C)nc1C1CC1` [40-2, (R)-1-(6-cyclopropyl-5-methylpyridin-2-yl)-2-isopropyl-4-(3-(methylsulfonyl)phenyl)piperazine], the entries for the “Cell LXRα efficacy” value in experiment [2] and in experiment [5] were 3505 (14) % and 792 (80) %, respectively. The EC50 was 3500 nM in experiment [2] (read-out: Cell LXRα EC50) and above 20000 nM in experiment [3]. Also, the results for the Ki on LXR β LBD protein and at LXR α LBD protein [4] were 14 nM and 173 nM, respectively. The IC50 in experiment [5] (read-out: Cell LXRα IC50) is 792 nM; in experiment [6], 146 nM. The “Cell LXRβ efficacy” value in experiment [6] is on record as 146 (93) %.
For `CC(C)[C@@H]1CN(c2ccc(F)c(S(C)(=O)=O)c2Cl)CCN1c1ncc(Cl)c(C2CC2)n1` [Cpd No 22-2, (R)-5-chloro-2-(4-(2-chloro-4-fluoro-3-(methylsulfonyl)phenyl)-2-isopropylpiperazin-1-yl)-4-cyclopropylpyrimidine], the EC50 on LXR α LBD protein [1] worked out at 271 nM; in experiment [2] (read-out: Cell LXRα EC50) it was 1230 nM; in experiment [3] it was 750 nM. At LXR α LBD protein [1], the “FRET LXRα efficacy” value is 12%. Further, the “Cell LXRα efficacy” value in experiment [2] was 1227 (7) %; in experiment [5], 3610 (83) %. The inhibition constant (Ki) at LXR β LBD protein stood at 172 nM. The “Cell LXRβ efficacy” value was 750 (10) % in experiment [3] and 2144 (96) % in experiment [6]. The IC50 in experiment [5] (read-out: Cell LXRα IC50) turned out to be 3610 nM; in experiment [6], 2140 nM.
Regarding `CC(O)c1cnc(N2CCN(c3ccc(F)c(S(C)(=O)=O)c3)C[C@H]2C(C)C)nc1C(F)(F)F` (mixture of isomers) [Cpd No 12-1, 1-(2-((R)-4-(4-fluoro-3-(methylsulfonyl)phenyl)-2-isopropylpiperazin-1-yl)-4-(trifluoromethyl)pyrimidin-5-yl)ethan-1-ol], the figures for the “Cell LXRα efficacy” value in experiment [2] and in experiment [5] were 969 (46) % and 8047 (105) %, respectively. Also, the EC50 turned out to be 969 nM in experiment [2] (read-out: Cell LXRα EC50) and 154 nM in experiment [3]. For the same compound, the Ki amounted to 23 nM on LXR β LBD protein and 230 nM on LXR α LBD protein [4]. In addition, the “Cell LXRβ efficacy” value in experiment [3] (agonist mode) was 154 (37) %. Also, the IC50 in experiment [5] (read-out: Cell LXRα IC50) worked out at 8050 nM; in experiment [6] it was 252 nM.
